According to patent US5693672A, “3,4,5-substituted benzoylguanidines, process for their preparation, their use as a medicament or diagnostic and medicament containing them” (priority 1992, dated 1997):
Where a name gives a salt, the structure may show the parent alone.

Key:
[1] = target: T1, Na^+ /H^+ exchanger of rabbit erythrocytes (Oryctolagus cuniculus, UniProt P23791); test: Inhibition of the Na^+ /H^+ exchanger of rabbit erythrocytes (amiloride-sensitive Na^+ influx, flame photometry); assay type: cell-based, White New Zealand rabbits; conditions: pH 7.4, 37° C.
T1 construct: endogenous in cells; host or cells: erythrocytes in blood from the ear arteries of cholesterol-fed White New Zealand rabbits
Description: Inhibitors of the Na^+ /H^+ exchanger of rabbit erythrocytes:
White New Zealand rabbits (Ivanovas) received a standard diet containing 2% cholesterol for six weeks in order to activate Na^+ /H^+ exchange and thus to be able to determine the Na^+ influx into the erythrocytes via Na^+ /H^+ exchange by flame photometry. The blood was taken from the ear arteries and rendered incoagulable by 25 IU/ml of potassium heparin. A part of each sample was used for the duplicate determination of the hematocrit by centrifugation. Aliquots of 100 μl in each case were used to measure the Na^+ starting content of the erythrocytes.
In order to determine the amiloride-sensitive sodium influx, 100 μl of each blood sample were incubated at pH 7.4 and 37° C. in 5 ml in each case of a hyperosmolar salt/sucrose medium (mmol/1:140 NaCl, 3 KCl, 150 sucrose, 0.1 ouabain, 20 tris(hydroxymethyl)aminomethane). The erythrocytes were then washed three times with ice-cold MgCl2 /ouabain solution (mmol/1:112 MgCl2, 0.1 ouabain) and hemolized in 2.0 ml of distilled water. The intracellular sodium content was determined by flame photometry.
The Na^+ net influx was calculated from the difference between sodium starting values and the sodium content of the erythrocytes after incubation. The amiloride-inhibitable sodium influx resulted from the difference between the sodium content of the erythrocytes after incubation with and without 3×10^-4 mol/l amiloride. The process was also carried out in this manner in the case of the compounds according to the invention.

[2] = tested on: artificially induced ventricular fibrillation; conditions: rat hearts, isolated; cited from earlier work
cardiac arrhythmias = conditions: in vivo; cited from earlier work

T1 sequence (P23791 whole entry): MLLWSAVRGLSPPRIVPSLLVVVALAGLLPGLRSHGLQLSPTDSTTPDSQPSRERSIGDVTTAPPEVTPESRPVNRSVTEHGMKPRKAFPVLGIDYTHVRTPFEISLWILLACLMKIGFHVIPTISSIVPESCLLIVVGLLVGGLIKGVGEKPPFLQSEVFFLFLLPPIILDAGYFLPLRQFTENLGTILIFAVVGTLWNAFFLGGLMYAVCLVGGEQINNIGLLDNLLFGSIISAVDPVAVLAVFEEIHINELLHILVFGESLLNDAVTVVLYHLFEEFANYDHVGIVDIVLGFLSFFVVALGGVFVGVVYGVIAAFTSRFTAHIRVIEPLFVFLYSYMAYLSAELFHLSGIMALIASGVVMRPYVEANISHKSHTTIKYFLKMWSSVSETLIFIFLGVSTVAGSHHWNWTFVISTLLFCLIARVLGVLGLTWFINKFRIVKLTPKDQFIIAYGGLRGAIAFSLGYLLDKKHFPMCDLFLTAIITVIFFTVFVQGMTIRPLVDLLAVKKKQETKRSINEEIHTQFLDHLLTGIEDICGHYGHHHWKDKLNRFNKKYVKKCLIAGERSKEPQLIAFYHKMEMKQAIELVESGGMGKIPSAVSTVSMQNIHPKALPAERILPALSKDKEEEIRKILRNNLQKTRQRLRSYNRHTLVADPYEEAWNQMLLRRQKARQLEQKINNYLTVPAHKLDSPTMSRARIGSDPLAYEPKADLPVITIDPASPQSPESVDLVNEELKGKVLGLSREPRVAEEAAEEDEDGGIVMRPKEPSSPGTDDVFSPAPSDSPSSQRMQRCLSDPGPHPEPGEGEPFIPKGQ

IC50 [1] [µM]	SMILES	other results
3	CS(=O)(=O)c1cc(C(=O)N=C(N)N)cc(C2CCCC2)c1 [Example 13, 3-Cyclopentyl-5-methylsulfonylbenzoylguanidine hydrochloride]	–
0.2	CS(=O)(=O)c1cc(C(=O)N=C(N)N)ccc1C#Cc1ccccc1 [Example 7, 3-Methylsulfonyl-4-[(2'-phenyl)ethynyl]benzoylguanidine hydrochloride]	–
0.1	CS(=O)(=O)c1cc(C(=O)N=C(N)N)ccc1C1CCCC1 [Example 10, 4-Cyclopentyl-3-methylsulfonylbenzoylguanidine hydrochloride]	–
–	CCN(c1nc(N)c(C(=O)N=C(N)N)nc1Cl)C(C)C [ethylisopropylamiloride, Ethylisopropylamiloride]	potency relative to amiloride in the ventricular fibrillation model [2]: even more potent than amiloride
–	NC(N)=NC(=O)c1nc(Cl)c(N)nc1N [amiloride]	suppression of artificially induced ventricular fibrillation [2]: suppressed completely; accompanying side effects (cardiac arrhythmias): hypotensive and saluretic action; antiarrhythmic effect (cardiac arrhythmias): only slightly pronounced
1.7	CS(=O)(=O)c1cc(C(=O)N=C(N)N)ccc1C1CCCCC1 [Example 5, 4-Cyclohexyl-3-methylsulfonylbenzoylguanidine hydrochloride]	–
0.9	CS(=O)(=O)c1cc(C(=O)N=C(N)N)ccc1CCc1ccccc1 [Example 9, 3-Methylsulfonyl-4-phenylethylbenzoylguanidine hydrochloride]	–
> 1	CS(=O)(=O)c1cc(C(=O)N=C(N)N)ccc1-c1cccc(-c2ccccc2)c1 [Example 3, 3-Methylsulfonyl-4-(3-biphenyl)benzoylguanidine hydrochloride]	–
> 1	CS(=O)(=O)c1cc(C(=O)N=C(N)N)ccc1-c1ccccn1 [Example 6, 3-Methylsulfonyl-4-(2'-pyridyl)benzoylguanidine hydrochloride]	–
0.5	CS(=O)(=O)c1cc(C(=O)N=C(N)N)ccc1-c1ccc2ccccc2c1 [Example 2, 3-Methylsulfonyl-4-(2-naphthyl)benzoylguanidine hydrochloride]	–
